Laboratory results reported in patent US11180474B2 (BRISTOL-MYERS SQUIBB COMPANY, priority 2016, dated 2021).

Target: T1, human TLR9 (Homo sapiens, UniProt Q9NR96)
T1 construct: host or cells: HEK-Blue cells
T1 sequence (Q9NR96 26-1032): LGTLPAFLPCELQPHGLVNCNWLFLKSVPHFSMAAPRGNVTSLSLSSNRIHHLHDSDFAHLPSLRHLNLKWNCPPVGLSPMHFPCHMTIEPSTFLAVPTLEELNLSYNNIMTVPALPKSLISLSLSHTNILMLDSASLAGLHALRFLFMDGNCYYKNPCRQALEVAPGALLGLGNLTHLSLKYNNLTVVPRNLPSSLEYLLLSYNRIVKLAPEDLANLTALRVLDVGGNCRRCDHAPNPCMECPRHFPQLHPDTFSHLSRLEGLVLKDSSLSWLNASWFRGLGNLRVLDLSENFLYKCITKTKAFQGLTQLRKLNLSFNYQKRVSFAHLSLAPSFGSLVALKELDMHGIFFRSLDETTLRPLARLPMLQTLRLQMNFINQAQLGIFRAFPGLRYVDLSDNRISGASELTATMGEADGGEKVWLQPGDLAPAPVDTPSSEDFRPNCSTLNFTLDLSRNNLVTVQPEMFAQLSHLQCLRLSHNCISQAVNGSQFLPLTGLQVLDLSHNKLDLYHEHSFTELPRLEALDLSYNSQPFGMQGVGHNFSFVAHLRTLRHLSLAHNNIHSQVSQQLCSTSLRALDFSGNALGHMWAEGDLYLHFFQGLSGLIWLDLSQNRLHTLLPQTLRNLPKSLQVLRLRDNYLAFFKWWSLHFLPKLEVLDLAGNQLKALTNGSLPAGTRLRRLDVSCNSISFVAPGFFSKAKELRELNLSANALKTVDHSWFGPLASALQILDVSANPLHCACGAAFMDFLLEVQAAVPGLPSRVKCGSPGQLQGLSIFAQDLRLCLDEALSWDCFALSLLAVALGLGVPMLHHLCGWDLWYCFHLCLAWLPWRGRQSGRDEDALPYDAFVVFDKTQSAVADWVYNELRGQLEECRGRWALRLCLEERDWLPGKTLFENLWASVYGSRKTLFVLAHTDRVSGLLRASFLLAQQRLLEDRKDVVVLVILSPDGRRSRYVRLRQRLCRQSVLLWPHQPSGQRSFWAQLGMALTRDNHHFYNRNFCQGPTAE
Experiment: TLR9 inhibition reporter assay (HEK-Blue cells, SEAP reporter, ODN2006 stimulation)
Type: cell-based
Conditions: HEK-Blue cells overexpressing human TLR9, ODN2006 5 nM
How it was run: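 Dose–response from 0.05 nM to 50 μM was run in HEK-Blue human TLR7, TLR8 and TLR9 reporter cells. After 30 min at room temperature with compound, ligand was added (TLR7 gardiquimod 7.5 μM; TLR8 R848 15.9 μM; TLR9 ODN2006 5 nM) and SEAP measured next day, at 22 h.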

Which IC50 does the source give for `COc1ccc(-c2[nH]c3ccc(C4CCN(CC5CCCCN5C)CC4)cc3c2C)cc1OC` (centres unmarked) [Example 49, 2-(3,4-dimethoxyphenyl)-3-methyl-5-(1-((1-methylpiperidin-2-yl)methyl)piperidin-4-yl)-1H-indole] here?
The IC50 was 550 nM.

Which IC50 does the source give for `COc1ccc(-c2[nH]c3ccc(C4CCN(C5CCCN(CC6CC6)CC5)CC4)cc3c2C)cc1OC` (centres unmarked) [Example 94, 5-(1-(1-(cyclopropylmethyl)azepan-4-yl)piperidin-4-yl)-2-(3,4-dimethoxyphenyl)-3-methyl-1H-indole] here?
Its IC50 is 195 nM.

`COc1ccc(-c2[nH]c3ccc(C4CCN(C5CCN(CC(C)(C)C)CC5)CC4)cc3c2C)cc1OC` [Example 75, 2-(3,4-dimethoxyphenyl)-3-methyl-5-(1′-neopentyl-[1,4′-bipiperidin]-4-yl)-1H-indole] was tested. Which IC50 did it give?
The IC50 was 169 nM.

For `CCN(CC)C(=O)C1CCCN(CC(=O)N2CCC(c3ccc4[nH]c(-c5ccc(OC)c(OC)c5)c(CC(F)(F)F)c4c3)CC2)C1` (centres unmarked) [Example 421, 1-(2-(4-(2-(3,4-dimethoxyphenyl)-3-(2,2,2-trifluoroethyl)-1H-indol-5-yl)piperidin-1-yl)-2-oxoethyl)-N,N-diethylpiperidine-3-carboxamide], which IC50 is on record?
Its IC50 is 2280 nM.

With `COc1ccc(-c2[nH]c3ccc(C4CCN(C5CCN(C6CCCC6)CC5)CC4)cc3c2C)cc1OC` [Example 62, 5-(1′-cyclopentyl-[1,4′-bipiperidin]-4-yl)-2-(3,4-dimethoxyphenyl)-3-methyl-1H-indole] as the compound, how does the IC50 read?
Its IC50 is 196 nM.

`CCN(CC)C(=O)C1CCCN(CC(=O)N2CCC(c3ccc4[nH]c(-c5ccc(OC)c(OC)c5)c(CC(F)(F)F)c4c3)CC2)C1` (centres unmarked) [Example 418, 1-(2-(4-(2-(3,4-dimethoxyphenyl)-3-(2,2,2-trifluoroethyl)-1H-indol-5-yl)piperidin-1-yl)-2-oxoethyl)-N,N-diethylpiperidine-3-carboxamide] was tested. Which IC50 did it give?
Its IC50 is 1450 nM.

Which IC50 does the source give for `COc1ccc(-c2[nH]c3ccc(C4CCN(C5CCN(CC6CCOC6)CC5)CC4)cc3c2C)cc1OC` (centres unmarked) [Example 74] here?
The IC50 was 62 nM.

With `COc1ccc(-c2[nH]c3ccc(C4CCN(C5CCN(Cc6nccs6)CC5)CC4)cc3c2C)cc1OC` [Example 72, 2-((4-(2-(3,4-dimethoxyphenyl)-3-methyl-1H-indol-5-yl)-[1,4′-bipiperidin]-1′-yl)methyl)thiazole] as the compound, how does the IC50 read?
Its IC50 is 356 nM.

Which IC50 does the source give for `CCN1CCCC(N2CCC(c3ccc4[nH]c(-c5ccc(OC)c(OC)c5)c(C)c4c3)CC2)CC1` (centres unmarked) [Example 97, 2-(3,4-dimethoxyphenyl)-5-(1-(1-ethylazepan-4-yl)piperidin-4-yl)-3-methyl-1H-indole] here?
Its IC50 is 397 nM.

`COc1ccc(-c2[nH]c3ccc(C4CCN(C5CCN(CC(C)(C)CO)CC5)CC4)cc3c2C)cc1OC` [Example 69, 3-(4-(2-(3,4-dimethoxyphenyl)-3-methyl-1H-indol-5-yl)-[1,4′-bipiperidin]-1′-yl)-2,2-dimethylpropan-1-ol] was tested. Which IC50 did it give?
The IC50 was 174 nM.

For `COc1ccc(-c2[nH]c3ccc(C4CCN(C5CCN(Cc6ccco6)CC5)CC4)cc3c2C)cc1OC` [Example 76, 2-(3,4-dimethoxyphenyl)-5-(1′-(furan-2-ylmethyl)-[1,4′-bipiperidin]-4-yl)-3-methyl-1H-indole], which IC50 is on record?
Its IC50 is 172 nM.

How did the IC50 turn out when `COc1ccc(-c2[nH]c3ccc(C4CCN(C5CCN(Cc6cncn6C)CC5)CC4)cc3c2C)cc1OC` [Example 59, 2-(3,4-dimethoxyphenyl)-3-methyl-5-(1′-((1-methyl-1H-imidazol-5-yl)methyl)-[1,4′-bipiperidin]-4-yl)-1H-indole] was run?
Its IC50 is 180 nM.

With `COc1ccc(-c2[nH]c3ccc(C4CCN(C(=O)CNCCC(C)O)CC4)cc3c2C)cc1OC` (centres unmarked) [Example 406, 1-(4-(2-(3,4-dimethoxyphenyl)-3-methyl-1H-indol-5-yl)piperidin-1-yl)-2-((3-hydroxybutyl)amino)ethan-1-one] as the compound, how does the IC50 read?
Its IC50 is 3890 nM.

Which IC50 does the source give for `CNCC(=O)N1CCC(c2ccc3[nH]c(-c4ccc(OC)c(OC)c4)c(CC(F)(F)F)c3c2)CC1` [Example 414, 1-(4-(2-(3,4-dimethoxyphenyl)-3-(2,2,2-trifluoroethyl)-1H-indol-5-yl)piperidin-1-yl)-2-(methylamino)ethanone] here?
The IC50 was 1170 nM.

Which IC50 does the source give for `COc1ccc(-c2[nH]c3ccc(C4CCN(C5CCN(Cc6cccs6)CC5)CC4)cc3c2C)cc1OC` [Example 64, 2-(3,4-dimethoxyphenyl)-3-methyl-5-(1′-(thiophen-2-ylmethyl)-[1,4′-bipiperidin]-4-yl)-1H-indole] here?
Its IC50 is 112 nM.

`COc1ccc(-c2[nH]c3ccc(C4CCN(C5CCN(C6CCC(O)CC6)CC5)CC4)cc3c2C)cc1OC` (centres unmarked) [Example 84, 4-(4-(2-(3,4-dimethoxyphenyl)-3-methyl-1H-indol-5-yl)-[1,4′-bipiperidin]-1′-yl)cyclohexan-1-ol] was tested. Which IC50 did it give?
Its IC50 is 192 nM.

Which IC50 does the source give for `COc1ccc(-c2[nH]c3ccc(C4CCN(C5CC(C)(C)NC(C)(C)C5)CC4)cc3c2C)cc1OC` [Example 48, 2-(3,4-dimethoxyphenyl)-3-methyl-5-(2′,2′,6′,6′-tetramethyl-[1,4′-bipiperidin]-4-yl)-1H-indole] here?
Its IC50 is 435 nM.

Which IC50 does the source give for `CCN1CCC(N2CCC(c3ccc4[nH]c(-c5ccc(OC)c(OC)c5)c(C)c4c3)CC2)CC1` [Example 44, 2-(3,4-dimethoxyphenyl)-5-(1′-ethyl-[1,4′-bipiperidin]-4-yl)-3-methyl-1H-indole] here?
The IC50 was 301 nM.

How did the IC50 turn out when `COc1ccc(-c2[nH]c3ccc(C4CCN(C5CCN(CC6CCCCC6)CC5)CC4)cc3c2C)cc1OC` [Example 58, 5-(1′-(cyclohexylmethyl)-[1,4′-bipiperidin]-4-yl)-2-(3,4-dimethoxyphenyl)-3-methyl-1H-indole] was run?
The IC50 was 86 nM.

For `CNCCN1CCC(c2ccc3[nH]c(-c4ccc(OC)c(OC)c4)c(CC(F)(F)F)c3c2)CC1` [Example 413, 2-(4-(2-(3,4-dimethoxyphenyl)-3-(2,2,2-trifluoroethyl)-1H-indol-5-yl)piperidin-1-yl)-N-methylethanamine], which IC50 is on record?
The IC50 was 626 nM.

`COc1ccc(-c2[nH]c3ccc(C4CCN(C(=O)CN5CCN(C)CC5)CC4)cc3c2C)cc1OC` [Example 409, 1-(4-(2-(3,4-dimethoxyphenyl)-3-methyl-1H-indol-5-yl)piperidin-1-yl)-2-(4-methylpiperazin-1-yl)ethan-1-one] was tested. Which IC50 did it give?
The IC50 was 2350 nM.

How did the IC50 turn out when `COc1ccc(-c2[nH]c3ccc(C4CCN(C(=O)CN5CCCC(C(=O)N(C)C)C5)CC4)cc3c2CC(F)(F)F)cc1OC` (centres unmarked) [Example 419, 1-(2-(4-(2-(3,4-dimethoxyphenyl)-3-(2,2,2-trifluoroethyl)-1H-indol-5-yl)piperidin-1-yl)-2-oxoethyl)-N,N-dimethylpiperidine-3-carboxamide] was run?
The IC50 was 2950 nM.

For `COc1ccc(-c2[nH]c3ccc(C4CCN(C5CCN(C6CCC(C)CC6)CC5)CC4)cc3c2C)cc1OC` (centres unmarked) [Example 80, 2-(3,4-dimethoxyphenyl)-3-methyl-5-(1′-(4-methylcyclohexyl)-[1,4′-bipiperidin]-4-yl)-1H-indole], which IC50 is on record?
The IC50 was 80 nM.

`CCCCCN1CCC(N2CCC(c3ccc4[nH]c(-c5ccc(OC)c(OC)c5)c(C)c4c3)CC2)CC1` [Example 55, 2-(3,4-dimethoxyphenyl)-3-methyl-5-(1′-pentyl-[1,4′-bipiperidin]-4-yl)-1H-indole] was tested. Which IC50 did it give?
The IC50 was 72 nM.

`COc1ccc(-c2[nH]c3ccc(C4CCN(C(=O)CN5CCC(N(C)C)CC5)CC4)cc3c2C)cc1OC` [Example 407, 1-(4-(2-(3,4-dimethoxyphenyl)-3-methyl-1H-indol-5-yl)piperidin-1-yl)-2-(4-(dimethylamino)piperidin-1-yl)ethan-1-one] was tested. Which IC50 did it give?
The IC50 was 11500 nM.

Which IC50 does the source give for `COc1ccc(-c2[nH]c3ccc(C4CCN(C5CCN(C(C)C)CC5)CC4)cc3c2CC(F)(F)F)cc1OC` [Example 412, 2-(3,4-dimethoxyphenyl)-5-(1′-isopropyl-[1,4′-bipiperidin]-4-yl)-3-(2,2,2-trifluoroethyl)-1H-indole] here?
Its IC50 is 247 nM.

For `C#CCCCCC(=O)NCCN1CCC(c2ccc3[nH]c(-c4ccc(OC)c(OC)c4)c(C(C)C)c3c2)CC1` [Example 411, N-(2-(4-(2-(3,4-dimethoxyphenyl)-3-isopropyl-1H-indol-5-yl)piperidin-1-yl)ethyl)hept-6-ynamide], which IC50 is on record?
Its IC50 is 3890 nM.

`COc1ccc(-c2[nH]c3ccc(C4CCN(C(=O)CN(C)CCO)CC4)cc3c2C)cc1OC` [Example 408, 1-(4-(2-(3,4-dimethoxyphenyl)-3-methyl-1H-indol-5-yl)piperidin-1-yl)-2-((2-hydroxyethyl)(methyl)amino)ethan-1-one] was tested. Which IC50 did it give?
Its IC50 is 2000 nM.

Which IC50 does the source give for `COc1ccc(-c2[nH]c3ccc(C4CCN(C5CCCN(CC(C)C)CC5)CC4)cc3c2C)cc1OC` (centres unmarked) [Example 95, 2-(3,4-dimethoxyphenyl)-5-(1-(1-isobutylazepan-4-yl)piperidin-4-yl)-3-methyl-1H-indole] here?
The IC50 was 115 nM.
